What was measured:
U373 = experiment: SRB cytotoxicity assay, U373; assay type: cell-based
Text: (§1) Eight different cancer cell lines were acquired from the Radiobiology and Experimental Radio Oncology lab, University Medical Center, Hamburg University, Hamburg, Germany. MCF7, MDA-MB-231 (breast cancer), and A549 (lung cancer) cells were maintained in RPMI medium while HCT116 (colon cancer), HepG2 (liver cancer), U87, U373 (glioblastoma), and HeLa (cervical cancer) were maintained in DMEM supplemented with 10% FBS and 1% penicillin/streptomycin (Sigma Aldrich, Missouri, USA). Normal human fibroblast (F180) cells were maintained in DMEM supplemented with 15% FBS. Normal human mammary epithelial cell line (HME1) were maintained in DMEM/F-12 medium supplemented with 10% FBS. All incubations were done at 37° C. in a humidified atmosphere of 5% CO2. All cell lines were authenticated by short tandem repeat (STR) profiling. The CDK4 knockout cells (provided by Dr. Samrein Ahmed, University of Sharjah, United Arab Emirates) were generated by CRISPR-CAS9 technology and were maintained in DMEM supplemented with 10% FBS.
(§2) The cytotoxic effects of HH32 and HH33 compounds were evaluated at various concentrations ranging from 0.0001 to 100 μM by sulphrhodamine-B (SRB) assay as described previously. The anti-proliferative activity was expressed as growth inhibitory concentration (IC50) values, which were calculated by the sigmoidal dose-response curve fitting method using Graph pad prism 6 software (GraphPad Software, San Diego, CA, USA).

MDA-MB-231 = experiment: SRB cytotoxicity assay, MDA-MB-231; assay type: cell-based
Text: as §1, §2

HME1 = experiment: SRB cytotoxicity assay, normal mammary epithelial HME1; assay type: cell-based, human; conditions: mean ± SEM
Text: as §1, with “The CDK4 knockout cells (provided by Dr. Samrein Ahmed, University of Sharjah, United Arab Emirates) were generated by CRISPR-CAS9 technology and were maintained in DMEM supplemented with 10% FBS.” left out
as §2

MCF7 = experiment: SRB cytotoxicity assay, MCF7; assay type: cell-based
Text: as §1, §2

U87 = experiment: SRB cytotoxicity assay, U87; assay type: cell-based
Text: as §1, §2

A549 = experiment: SRB cytotoxicity assay, A549; assay type: cell-based
Text: as §1, §2

HeLa = experiment: SRB cytotoxicity assay, HeLa; assay type: cell-based
Text: as §1, §2

HCT-116 = experiment: SRB cytotoxicity assay, HCT-116; assay type: cell-based
Text: as §1, §2

HepG2 = experiment: SRB cytotoxicity assay, HepG2; assay type: cell-based
Text: as §1, §2

F-180 = experiment: SRB cytotoxicity assay, normal fibroblast F-180; assay type: cell-based, human; conditions: F-180 normal fibroblast, mean ± SEM
Text: as §1, §2

## COc1cccc2c1C(=O)c1c(O)c3c(c(O)c1C2=O)C[C@@](O)(C(=O)CO)C[C@@H]3O[C@H]1C[C@H](N)[C@H](O)[C@H](C)O1 [DOX, Doxorubicin, reference compound]
U373; F180 versus U373
  Selectivity index: 0.33
U373; HME1 versus U373
  Selectivity index: 1.3
U373; Homo sapiens, U373 MG, U373, SRB, mean ± SEM
  IC50: 880 ± 90 nM
MDA-MB-231; F180 versus MDA-MB-231
  Selectivity index: 0.64
MDA-MB-231; HME1 versus MDA-MB-231
  Selectivity index: 2.5
MDA-MB-231; Homo sapiens, MDA-MB-231, SRB, mean ± SEM
  IC50: 450 ± 110 nM
HME1; HME1 normal epithelial
  IC50: 1120 ± 190 nM
HME1; Homo sapiens, HME1, HME1 normal epithelial
  IC50: < 1200 nM
MCF7; F180 versus MCF7
  Selectivity index: 4.8
MCF7; HME1 versus MCF7
  Selectivity index: 18.7
MCF7; Homo sapiens, MCF7, SRB, mean ± SEM
  IC50: 60 nM
U87; F180 versus U87
  Selectivity index: 2.9
U87; HME1 versus U87
  Selectivity index: 11.2
U87; Homo sapiens, U-87 MG, U87, SRB, mean ± SEM
  IC50: 100 ± 90 nM
A549; F180 versus A549
  Selectivity index: 0.47
A549; HME1 versus A549
  Selectivity index: 1.81
A549; Homo sapiens, A549, SRB, mean ± SEM
  IC50: 620 ± 590 nM
HeLa; F180 versus HeLa
  Selectivity index: 0.6
HeLa; HME1 versus HeLa
  Selectivity index: 2.4
HeLa; Homo sapiens, HeLa, SRB, mean ± SEM
  IC50: 460 ± 460 nM
HCT-116; F180 versus HCT116
  Selectivity index: 2.6
HCT-116; HME1 versus HCT116
  Selectivity index: 10.2
HCT-116; Homo sapiens, HCT-116, SRB, mean ± SEM
  IC50: 110 nM
HepG2; F180 versus HepG2
  Selectivity index: 0.78
HepG2; HME1 versus HepG2
  Selectivity index: 3.02
HepG2; Homo sapiens, HepG2, SRB, mean ± SEM
  IC50: 370 ± 120 nM
F-180
  IC50: 290 ± 370 nM
F-180; listed as doxorubicin
  IC50: < 1200 nM

— US20250002467A1, “DESIGN, SYNTHESIS AND MECHANISMS OF ANTICANCER ACTIVITY OF NEW ACETYLATED 5-AMINOSALICYLATE-THIAZOLINONE HYBRID DERIVATIVES” (University of Sharjah, priority 2023, published 2025)
